The record followed here is patent publication US12336981B2, “Compounds and compositions for the inhibition of NAMPT” (Valo Health, Inc., priority 2010, dated 2025).

For orientation: IC50 means the point on the concentration scale where inhibition reaches its midpoint.

Read-outs that look alike come from different tables or passages of the source.

The target in one test is T1, NAMPT (Homo sapiens, UniProt P43490).
T1 construct: His tag; host or cells: E. coli
As to the kind of experiment: Biochemical inhibition assay: NAMPT enzymatic reaction, NMN quantified by mass spectrometry. The note with it: NAMPT enzymatic reaction; read-out: Biochem IC50. The method in brief:
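Inhibition of E. coli-expressed His-tagged human NAMPT, measured as NMN formation by mass spectrometry after a 30 min room-temperature reaction containing 1 μM NAM, 100 μM PRPP and 2.5 mM ATP.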

A further test deals with A2780 cells. As to the kind of experiment: In-vitro cell proliferation assay (SRB), A2780 cells. Format: cell-based. The note with it: Homo sapiens, A2780, 72 h, A2780 cells, 72 hours, read-out: A2780 IC50. In a few lines:
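Read-out is SRB absorbance at 570 nm on TCA-fixed cells after 72 hours of compound treatment at 37° C. in 5% CO2. Background from a media-only plate is subtracted, and % inhibition is interpolated between two tested concentrations.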

T1 sequence (P43490 whole entry): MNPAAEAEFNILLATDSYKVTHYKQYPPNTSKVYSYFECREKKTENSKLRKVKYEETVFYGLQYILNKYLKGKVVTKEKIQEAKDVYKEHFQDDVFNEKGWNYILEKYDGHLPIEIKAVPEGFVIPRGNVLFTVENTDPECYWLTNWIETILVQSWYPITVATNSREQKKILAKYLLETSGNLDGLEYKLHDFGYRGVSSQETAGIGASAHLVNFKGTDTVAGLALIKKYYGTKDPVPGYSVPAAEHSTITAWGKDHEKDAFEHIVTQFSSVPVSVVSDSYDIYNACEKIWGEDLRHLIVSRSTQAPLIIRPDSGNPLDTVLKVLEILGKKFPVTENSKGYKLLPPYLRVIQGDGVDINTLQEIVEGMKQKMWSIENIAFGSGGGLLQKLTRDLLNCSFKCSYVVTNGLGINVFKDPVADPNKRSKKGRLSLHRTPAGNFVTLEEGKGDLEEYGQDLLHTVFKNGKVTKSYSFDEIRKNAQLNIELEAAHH

Consider `Cc1cc(Cl)ccc1S(=O)(=O)c1ccc(CNC(=O)c2cc3cnccc3[nH]2)cc1` [N-({4-[(4-chloro-2-methylbenzene)sulfonyl]phenyl}methyl)-1H-pyrrolo[3,2-c]pyridine-2-carboxamide], for which the IC50 is 0.027 µM at NAMPT and 0.025 µM in the test on A2780 cells (SRB assay).
For `Cc1cc(Cl)ccc1S(=O)(=O)c1ccc(CNC(=O)c2cc3ccncc3o2)cc1` [N-({4-[(4-chloro-2-methylbenzene)sulfonyl]phenyl}methyl)furo[2,3-c]pyridine-2-carboxamide], the figures for the IC50 on NAMPT and in the test with A2780 cells (SRB) were 0.0249 µM and 0.0647 µM, respectively.
As for `O=C(NCc1ccc(S(=O)(=O)c2ccc(Cl)c(F)c2)cc1)c1cc2cnccc2[nH]1` [N-({4-[(4-chloro-3-fluorobenzene)sulfonyl]phenyl}methyl)-1H-pyrrolo[3,2-c]pyridine-2-carboxamide], the figures for the concentration for half-maximal inhibition (IC50) at NAMPT and with A2780 cells (SRB assay) were 0.008 µM and 0.013 µM, respectively.
As for `O=C(NCc1ccc(S(=O)(=O)c2ccc(Cl)c(F)c2)cc1)c1ccc2nccn2c1` [N-({4-[(4-chloro-3-fluorobenzene)sulfonyl]phenyl}methyl)imidazo[1,2-a]pyridine-6-carboxamide], the IC50 on NAMPT is 0.00722 µM; in the test with A2780 cells (SRB), 0.00724 µM.
Take `O=C(NCc1ccc(S(=O)(=O)c2ccc(Cl)c(F)c2)cc1)c1cc2ccncc2s1` [N-({4-[(4-chloro-3-fluorobenzene)sulfonyl]phenyl}methyl)thieno[2,3-c]pyridine-2-carboxamide]: the IC50 on NAMPT was 0.003 µM; with A2780 cells (SRB assay), 0.0071 µM.
With `COc1cc(S(=O)(=O)c2ccc(CNC(=O)c3cc4ccncc4o3)cc2)ccc1Cl` [N-({4-[(4-chloro-3-methoxybenzene)sulfonyl]phenyl}methyl)furo[2,3-c]pyridine-2-carboxamide], the IC50 was found to be 0.0059 µM on NAMPT and 0.006 µM with A2780 cells (SRB).
Consider `O=C(NCc1ccc(S(=O)(=O)c2ccc(Cl)cc2)cc1)c1cnc2[nH]ncc2c1` [N-({4-[(4-chlorobenzene)sulfonyl]phenyl}methyl)-1H-pyrazolo[3,4-b]pyridine-5-carboxamide], for which the IC50 at NAMPT is 0.0288 µM; with A2780 cells (SRB), 0.022 µM.
For the compound `O=C(NCc1ccc(S(=O)(=O)c2ccc(Cl)cc2)cc1)c1cc2cnccc2[nH]1` [N-({4-[(4-chlorobenzene)sulfonyl]phenyl}methyl)-1H-pyrrolo[3,2-c]pyridine-2-carboxamide], the results for the half-maximal inhibitory concentration (IC50) at NAMPT and with A2780 cells (SRB assay) were 0.009 µM and 0.025 µM, respectively.
As for `O=C(NCc1ccc(S(=O)(=O)c2ccc(Cl)cc2)cc1)c1cc2ccncc2o1` [N-({4-[(4-chlorobenzene)sulfonyl]phenyl}methyl)furo[2,3-c]pyridine-2-carboxamide], the figures for the IC50 at NAMPT and in the test on A2780 cells (SRB) were 0.0049 µM and 0.0142 µM, respectively.
`N#Cc1ccc(S(=O)(=O)c2ccc(CNC(=O)c3cnc4[nH]ncc4c3)cc2)cc1` [N-({4-[(4-cyanobenzene)sulfonyl]phenyl}methyl)-1H-pyrazolo[3,4-b]pyridine-5-carboxamide]: the IC50 at NAMPT is 0.0284 µM; in the test with A2780 cells (SRB), 0.0208 µM.
For `N#Cc1ccc(S(=O)(=O)c2ccc(CNC(=O)c3cc4cnccc4[nH]3)cc2)cc1` [N-({4-[(4-cyanobenzene)sulfonyl]phenyl}methyl)-1H-pyrrolo[3,2-c]pyridine-2-carboxamide], the IC50 was 0.0111 µM on NAMPT and 0.0251 µM with A2780 cells (SRB).
`N#Cc1ccc(S(=O)(=O)c2ccc(CNC(=O)c3cc4ccncc4o3)cc2)cc1` [N-({4-[(4-cyanobenzene)sulfonyl]phenyl}methyl)furo[2,3-c]pyridine-2-carboxamide]: the IC50 at NAMPT came out at 0.0053 µM; with A2780 cells (SRB), 0.0309 µM.
In the case of `CCOc1ccc(NS(=O)(=O)c2ccc(CNC(=O)c3cc4cnccc4[nH]3)cc2)c(F)c1` [N-({4-[(4-ethoxy-2-fluorophenyl)sulfamoyl]phenyl}methyl)-1H-pyrrolo[3,2-c]pyridine-2-carboxamide], the IC50 at NAMPT came to 0.154 µM; in the test with A2780 cells (SRB assay), 1.6 µM.
Regarding `CCOc1ccc(S(=O)(=O)c2ccc(CNC(=O)c3cnc4nccn4c3)cc2)c(C)c1` [N-({4-[(4-ethoxy-2-methylbenzene)sulfonyl]phenyl}methyl)imidazo[1,2-a]pyrimidine-6-carboxamide], the IC50 is 0.0117 µM at NAMPT and 0.0607 µM with A2780 cells (SRB).
For the compound `CCOc1ccc(S(=O)(=O)c2ccc(CNC(=O)c3cc4ccncc4o3)cc2)cc1` [N-({4-[(4-ethoxybenzene)sulfonyl]phenyl}methyl)furo[2,3-c]pyridine-2-carboxamide], the IC50 at NAMPT was determined as 0.0025 µM; with A2780 cells (SRB), 0.0071 µM.
Take `CCc1ccc(S(=O)(=O)c2ccc(CNC(=O)c3cc4cnccc4[nH]3)cc2)cc1` [N-({4-[(4-ethylbenzene)sulfonyl]phenyl}methyl)-1H-pyrrolo[3,2-c]pyridine-2-carboxamide]: the IC50 was found to be 0.008 µM on NAMPT and 0.012 µM with A2780 cells (SRB assay).
Consider `CCc1ccc(S(=O)(=O)c2ccc(CNC(=O)c3cc4ccncc4o3)cc2)cc1` [N-({4-[(4-ethylbenzene)sulfonyl]phenyl}methyl)furo[2,3-c]pyridine-2-carboxamide], for which the values for the IC50 on NAMPT and in the test on A2780 cells (SRB) were 0.005 µM and 0.007 µM, respectively.
In the same order, the values of `CCc1ccc(S(=O)(=O)c2ccc(CNC(=O)c3ccc4nccn4c3)cc2)cc1` [N-({4-[(4-ethylbenzene)sulfonyl]phenyl}methyl)imidazo[1,2-a]pyridine-6-carboxamide] are 0.0165 µM and 0.00736 µM.
As to `CCc1ccc(S(=O)(=O)c2ccc(CNC(=O)c3cc4ccncc4s3)cc2)cc1` [N-({4-[(4-ethylbenzene)sulfonyl]phenyl}methyl)thieno[2,3-c]pyridine-2-carboxamide], the concentration for half-maximal inhibition (IC50) came to 0.006 µM at NAMPT and 0.0078 µM in the test on A2780 cells (SRB assay).
`Cc1cc(S(=O)(=O)c2ccc(CNC(=O)c3cnc4[nH]ncc4c3)cc2)c(C)cc1F` [N-({4-[(4-fluoro-2,5-dimethylbenzene)sulfonyl]phenyl}methyl)-1H-pyrazolo[3,4-b]pyridine-5-carboxamide]: the concentration for half-maximal inhibition (IC50) on NAMPT was 0.0373 µM; with A2780 cells (SRB), 0.0459 µM.
In the same order, the values of `Cc1cc(S(=O)(=O)c2ccc(CNC(=O)c3cc4ccncc4s3)cc2)c(C)cc1F` [N-({4-[(4-fluoro-2,5-dimethylbenzene)sulfonyl]phenyl}methyl)thieno[2,3-c]pyridine-2-carboxamide] are 0.0042 µM and 0.0136 µM.
On to `COc1cc(F)ccc1S(=O)(=O)c1ccc(CNC(=O)c2cnc3[nH]ncc3c2)cc1` [N-({4-[(4-fluoro-2-methoxybenzene)sulfonyl]phenyl}methyl)-1H-pyrazolo[3,4-b]pyridine-5-carboxamide], for which the IC50 on NAMPT was 0.159 µM; in the test with A2780 cells (SRB), 0.0742 µM.
`COc1cc(F)ccc1S(=O)(=O)c1ccc(CNC(=O)c2cc3cnccc3[nH]2)cc1` [N-({4-[(4-fluoro-2-methoxybenzene)sulfonyl]phenyl}methyl)-1H-pyrrolo[3,2-c]pyridine-2-carboxamide]: the IC50 stood at 0.031 µM on NAMPT and 0.007 µM in the test with A2780 cells (SRB assay).
Consider `COc1cc(F)ccc1S(=O)(=O)c1ccc(CNC(=O)c2ccc3nccn3c2)cc1` [N-({4-[(4-fluoro-2-methoxybenzene)sulfonyl]phenyl}methyl)imidazo[1,2-a]pyridine-6-carboxamide], for which the IC50 at NAMPT was determined as 0.0193 µM; in the test with A2780 cells (SRB) it was 0.00705 µM.
In the case of `COc1cc(F)ccc1S(=O)(=O)c1ccc(CNC(=O)c2cc3ccncc3s2)cc1` [N-({4-[(4-fluoro-2-methoxybenzene)sulfonyl]phenyl}methyl)thieno[2,3-c]pyridine-2-carboxamide], the IC50 at NAMPT was 0.009 µM; in the test with A2780 cells (SRB assay), 0.0065 µM.
